{
  "source": "patent US9586956B2",
  "about": "“Isoquinoline and naphthyridine derivatives” (Genentech, Inc., priority 2012, dated 2017)",
  "data": [
    {"target": "T1, purified human MAP4K4 kinase domain (Homo sapiens, UniProt O95819)", "T1 construct": "purified human MAP4K4 kinase domain", "T1 sequence (O95819 25-289 limits assumed)": "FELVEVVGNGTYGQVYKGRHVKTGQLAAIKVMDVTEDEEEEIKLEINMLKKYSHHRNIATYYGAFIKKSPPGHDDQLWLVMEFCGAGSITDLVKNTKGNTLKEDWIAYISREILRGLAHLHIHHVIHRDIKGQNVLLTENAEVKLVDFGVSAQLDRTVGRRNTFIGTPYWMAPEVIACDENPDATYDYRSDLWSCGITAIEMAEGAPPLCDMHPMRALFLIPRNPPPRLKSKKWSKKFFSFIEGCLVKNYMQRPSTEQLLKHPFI", "assay": "MAP4K4 Inhibition Assay Protocol No. 1 (Caliper LabChip, moesin-derived peptide phosphorylation)", "assay_type": "biochemical", "conditions": "Assay 1; 1 nM enzyme, 10 uM ATP, 45 min", "description": "The kinase activity of purified human MAP4K4 kinase domain was measured by monitoring the phosphorylation of a peptide substrate derived from moesin protein (Leu-Gly-Arg-Asp-Lys-Tyr-Lys-Thr-Leu-Arg-Gln-Ile-Arg-Gln) fluorescently labeled on the N-terminus with 5-carboxyfluorescein using the Caliper LabChip technology (Caliper Life Sciences, Hopkinton, Mass.). To determine inhibition constants (IC50), compounds were serially diluted in DMSO and added to 10 uL kinase reactions containing 1 nM purified MAP4K4 enzyme, 1 uM peptide substrate, 10 uM ATP, 10 mM MgCl2, 1 mM EGTA, 50 mM Hepes pH 7.2, 1 mM DTT, 0.01% Triton X-100, and 2% DMSO. Reactions were incubated at room temperature in Perkin Elmer Proxiplates for 45 minutes and stopped by the addition of 10 uL of an EDTA-containing solution (50 mM Hepes pH 7.2, 40 mM EDTA, 0.02% Triton X-100). The fraction of phosphorylated peptide was determined as a fraction of total peptide substrate using the Caliper Lab Chip 3000 according to the manufacturer's instructions. IC50 values were determined using the four-parameter non-linear fit model.", "units": {"IC50": "µM"}, "values": [
      {"molecule": "Nc1ncc(C(=O)NCc2cccnc2)c2ccc(-c3cccc(F)c3)cc12", "note": "[Example 94, 1-amino-7-(3-fluorophenyl)-N-(3-pyridylmethyl) isoquinoline-4-carboxamide]", "IC50": 0.077},
      {"molecule": "Nc1ncc(C(=O)NC2CN(C(=O)C3CC3)C2)c2ccc(-c3cccc(F)c3)cc12", "note": "[Example 126, 1-amino-N-[1-(cyclo-propanecarbonyl)azetidin-3-yl]-7-(3-fluorophenyl)isoquinoline-4-carboxamide]", "IC50": 0.0357},
      {"molecule": "Nc1ncc(C(=O)NCCN2CCCC2)c2ccc(-c3cccc(F)c3)cc12", "note": "[Example 47, 1-amino-7-(3-fluorophenyl)-N-(2-pyrrolidin-1-ylethyl)isoquinoline-4-carboxamide]", "IC50": 1.6},
      {"molecule": "NC(=O)C1CCCN(C(=O)c2cnc(N)c3cc(-c4cccc(F)c4)ccc23)C1", "note": "(stereo not shown) [Example 51, 1-[1-amino-7-(3-fluorophenyl)isoquinoline-4-carbonyl] piperidine-3-carboxamide]", "IC50": 2},
      {"molecule": "Nc1ncc(C(=O)NC2CC(O)C2)c2ccc(-c3cccc(F)c3)cc12", "note": "(stereo not shown) [Example 3, 1-amino-7-(3-fluorophenyl)-N-(3-hydroxycyclobutyl)isoquinoline-4-carboxamide]", "IC50": 0.0388},
      {"molecule": "CC(O)CNC(=O)c1cnc(N)c2cc(-c3cccc(F)c3)ccc12", "note": "(stereo not shown) [Example 119, 1-amino-7-(3-fluorophenyl)-N-(2-hydroxypropyl) isoquinoline-4-carboxamide]", "IC50": 0.0996},
      {"molecule": "Nc1ncc(C(=O)NCC2CCOC2)c2ccc(-c3cccc(F)c3)cc12", "note": "(stereo not shown) [Example 59, 1-amino-7-(3-fluorophenyl)-N-(tetrahydrofuran-3-ylmethyl)isoquinoline-4-carboxamide]", "IC50": 0.0999},
      {"molecule": "Cc1ncc(NC(=O)c2cnc(N)c3cc(-c4cccc(F)c4)ccc23)cn1", "note": "[Example 117, 1-amino-7-(3-fluorophenyl)-N-(2-methylpyrimidin-5-yl)isoquinoline-4-carboxamide]", "IC50": 0.07},
      {"molecule": "COCc1ccc(NC(=O)c2cnc(N)c3cc(-c4cccc(F)c4)ccc23)cc1", "note": "[Example 54, 1-amino-7-(3-fluorophenyl)-N-[4-(methoxymethyl)phenyl]isoquinoline-4-carboxamide]", "IC50": 0.0175},
      {"molecule": "NCc1cnc(N)c2cc(-c3cccc(F)c3)ccc12", "note": "[Example 5, 4-(aminomethyl)-7-(3-fluorophenyl)isoquinolin-1-amine]", "IC50": 1.2},
      {"molecule": "CN1CCN(CCNC(=O)c2cnc(N)c3cc(-c4cccc(F)c4)ccc23)CC1", "note": "[Example 83, 1-amino-7-(3-fluorophenyl)-N-[2-(4-methylpiperazin-1-yl)ethyl]isoquinoline-4-carboxamide]", "IC50": 0.217},
      {"molecule": "Nc1ncc(C(=O)NC2CCOCC2)c2ccc(-c3cccc(F)c3)cc12", "note": "[Example 68, 1-amino-7-(3-fluorophenyl)-N-tetrahydropyran-4-yl-isoquinoline-4-carboxamide]", "IC50": 0.12},
      {"molecule": "Nc1ncc(C(=O)NCCN2CCS(=O)(=O)CC2)c2ccc(-c3cccc(F)c3)cc12", "note": "[Example 76, 1-amino-N-[2-(1,1-dioxo-1,4-thiazinan-4-yl)ethyl]-7-(3-fluorophenyl) isoquinoline-4-carboxamide]", "IC50": 0.245},
      {"molecule": "Nc1ncc(C(=O)NCC2CC2)c2ccc(-c3cccc(F)c3)cc12", "note": "[Example 101, 1-amino-N-(cyclopropylmethyl)-7-(3-fluorophenyl) isoquinoline-4-carboxamide]", "IC50": 0.0399},
      {"molecule": "Nc1ncc(C(=O)NCCN2CCNC2=O)c2ccc(-c3cccc(F)c3)cc12", "note": "[Example 82, 1-amino-7-(3-fluorophenyl)-N-[2-(2-oxoimidazolidin-1-yl)ethyl]isoquinoline-4-carboxamide]", "IC50": 0.148},
      {"molecule": "CN(C)CCNC(=O)c1cnc(N)c2cc(-c3cccc(F)c3)ccc12", "note": "[Example 46, 1-amino-N-[2-(dimethylamino)ethyl]-7-(3-fluorophenyl) isoquinoline-4-carboxamide]", "IC50": 2.4},
      {"molecule": "1-amino-N-[2-(3,5-dimethyl- pyrazol-1-yl)ethyl]-7- (3-fluorophenyl) isoquinoline-4-carboxamide [Example 79]", "IC50": 1.4},
      {"molecule": "CNC(=O)c1nc(CNC(=O)c2cnc(N)c3cc(-c4cccc(F)c4)ccc23)no1", "note": "[Example 87, 3-[[[1-amino-7-(3-fluorophenyl)isoquinoline-4-carbonyl]amino]methyl]-N-methyl-1,2,4-oxadiazole-5-carboxamide]", "IC50": 0.0452},
      {"molecule": "Nc1ncc(C(=O)NC2CCCC(O)C2)c2ccc(-c3cccc(F)c3)cc12", "note": "(stereo not shown) [Example 70, 1-amino-7-(3-fluorophenyl)-N-(3-hydroxycyclohexyl) isoquinoline-4-carboxamide]", "IC50": 0.0852},
      {"molecule": "NC(=O)c1nc(CNC(=O)c2cnc(N)c3cc(-c4cccc(F)c4)ccc23)no1", "note": "[Example 61, 3-[[[1-amino-7-(3-fluorophenyl)isoquinoline-4-carbonyl]amino]methyl]-1,2,4-oxadiazole-5-carboxamide]", "IC50": 0.0368},
      {"molecule": "Nc1ncc(C(=O)NC2CCC2)c2ccc(-c3cccc(F)c3)cc12", "note": "[Example 97, 1-amino-N-cyclobutyl-7-(3-fluorophenyl) isoquinoline-4-carboxamide]", "IC50": 0.03},
      {"molecule": "Nc1ncc(C(=O)NC2CNC2)c2ccc(-c3cccc(F)c3)cc12", "note": "[Example 124, 1-amino-N-(azetidin-3-yl)-7-(3-fluorophenyl) isoquinoline-4-carboxamide]", "IC50": 0.4},
      {"molecule": "Nc1ncc(C(=O)NC2COC2)c2ccc(-c3cccc(F)c3)cc12", "note": "[Example 115, 1-amino-7-(3-fluorophenyl)-N-(oxetan-3-yl)isoquinoline-4-carboxamide]", "IC50": 0.0454},
      {"molecule": "1-amino-7-(3-fluorophenyl)- N-(4-hydroxycyclohexyl) isoquinoline-4-carboxamide [Example 113]", "IC50": 0.0565},
      {"molecule": "CC(C)CNC(=O)c1cnc(N)c2cc(-c3cccc(F)c3)ccc12", "note": "[Example 92, 1-amino-7-(3-fluorophenyl)-N-isobutyl-isoquinoline-4-carboxamide]", "IC50": 0.0335},
      {"molecule": "Cc1cncc(NC(=O)c2cnc(N)c3cc(-c4cccc(F)c4)ccc23)c1", "note": "[Example 116, 1-amino-7-(3-fluorophenyl)-N-(5-methyl-3-pyridyl) isoquinoline-4-carboxamide]", "IC50": 0.114},
      {"molecule": "CN(C)C(=O)CN1CCN(C(=O)c2cnc(N)c3cc(-c4cccc(F)c4)ccc23)CC1", "note": "[Example 52, 2-[4-[1-amino-7-(3-fluorophenyl)isoquinoline-4-carbonyl]piperazin-1-yl]-N,N-dimethyl-acetamide]", "IC50": 1.5},
      {"molecule": "CC(=O)N1CCN(C(=O)c2cnc(N)c3cc(-c4cccc(F)c4)ccc23)CC1", "note": "[Example 49, 1-[4-[1-amino-7-(3-fluorophenyl)isoquinoline-4-carbonyl]piperazin-1-yl] ethanone]", "IC50": 2.6},
      {"molecule": "Nc1ncc(C(=O)Nc2cccnc2)c2ccc(-c3cccc(F)c3)cc12", "note": "[Example 107, 1-amino-7-(3-fluorophenyl)-N-(3-pyridyl)isoquinoline-4-carboxamide]", "IC50": 0.0124},
      {"molecule": "Nc1ncc(C(=O)NCC2CCOCC2)c2ccc(-c3cccc(F)c3)cc12", "note": "[Example 56, 1-amino-7-(3-fluorophenyl)-N-(tetrahydropyran-4-ylmethyl)isoquinoline-4-carboxamide]", "IC50": 0.249},
      {"molecule": "COc1cccc(CNC(=O)c2cnc(N)c3cc(-c4cccc(F)c4)ccc23)c1", "note": "[Example 91, 1-amino-7-(3-fluorophenyl)-N-[(3-methoxyphenyl)methyl]isoquinoline-4-carboxamide]", "IC50": 0.0511},
      {"molecule": "Nc1ncc(C(=O)NCCCN2CCOCC2)c2ccc(-c3cccc(F)c3)cc12", "note": "[Example 64, 1-amino-7-(3-fluorophenyl)-N-(3-morpholinopropyl) isoquinoline-4-carboxamide]", "IC50": 0.34},
      {"molecule": "CN1CCC(Oc2ccc(NC(=O)c3cnc(N)c4cc(-c5cccc(F)c5)ccc34)cc2)CC1", "note": "[Example 86, 1-amino-7-(3-fluorophenyl)-N-[4-[(1-methyl-4-piperidyl)oxy]phenyl] isoquinoline-4-carboxamide]", "IC50": 0.0081},
      {"molecule": "Nc1ncc(C(=O)N2CCC(CO)CC2)c2ccc(-c3cccc(F)c3)cc12", "note": "[Example 55, [1-amino-7-(3-fluorophenyl)-4-isoquinolyl]-[4-(hydroxy-methyl)-1-piperidyl] methanone]", "IC50": 0.622},
      {"molecule": "CC(C)NC(=O)c1cnc(N)c2cc(-c3cccc(F)c3)ccc12", "note": "[Example 102, 1-amino-7-(3-fluorophenyl)-N-isopropyl-isoquinoline-4-carboxamide]", "IC50": 0.135},
      {"molecule": "Nc1ncc(C(=O)NCCS(=O)(=O)N2CCCC2)c2ccc(-c3cccc(F)c3)cc12", "note": "[Example 53, 1-amino-7-(3-fluorophenyl)-N-(2-pyrrolidin-1-ylsulfonylethyl) isoquinoline-4-carboxamide]", "IC50": 0.388},
      {"molecule": "Nc1ncc(C(=O)NCCN2CCOCC2)c2ccc(-c3cccc(F)c3)cc12", "note": "[Example 45, 1-amino-7-(3-fluorophenyl)-N-(2-morpholinoethyl) isoquinoline-4-carboxamide]", "IC50": 0.0841},
      {"molecule": "Nc1ncc(C(=O)N2CCN(CCO)CC2)c2ccc(-c3cccc(F)c3)cc12", "note": "[Example 65, [1-amino-7-(3-fluorophenyl)-4-isoquinolyl]-[4-(2-hydroxyethyl)piperazin-1-yl]methanone]", "IC50": 1.7},
      {"molecule": "Nc1ncc(C(=O)NC2CC2)c2ccc(-c3cccc(F)c3)nc12", "note": "[Example 13, 8-amino-N-cyclopropyl-2-(3-fluorophenyl)-1,7-naphthyridine-5-carboxamide]", "IC50": 0.00129},
      {"molecule": "Nc1ncc(C(=O)NC(CO)CO)c2ccc(-c3cccc(F)c3)cc12", "note": "[Example 114, 1-amino-7-(3-fluorophenyl)-N-[2-hydroxy-1-(hydroxy-methyl)ethyl]isoquinoline-4-carboxamide]", "IC50": 0.0386}
    ]}
  ]
}
